We go through two molecules from publication PMC5004101, “Broad Spectrum Anti-Influenza Agents by Inhibiting Self-Association of Matrix Protein 1” (Scientific Reports, 2016).

Data set [1] deals with T1, M1 (matrix protein 1), recombinant N1-165 domain of WSN/33 (Influenza A virus (A/Wilson-Smith/1933(H1N1)), UniProt P05777).
T1 construct: gene M
Briefly: surface plasmon resonance, biotinylated M1 on NeutrAvidin chip. In kind it is binding.

For data set [2] the target is unchanged. Description: bio-layer interferometry, inhibition of M1-M1 self-association. In kind it is binding. Background: Biolayer interferometry detects binding as a change in optical thickness at a sensor tip.
Data set [3] concerns the molecule itself. Description: SPR; […], room temperature, pH 7.4; […]. Background: In SPR one partner is held on a chip, and binding of the other changes the refractive index at the surface.

Usually Kd stands for a measure of binding affinity in units of concentration. As a reminder, the IC50 is the midpoint of a concentration-inhibition curve. `CCCc1c(OCCCOc2ccc(OCC(=O)O)cc2)ccc(C(C)=O)c1O` [PHE]: the Kd in data set [1] was found to be 870 ± 150 nM. In addition, in data set [2], the IC50 was about 6000 nM.

B1: matrix protein 1 (M1) N-terminal domain, residues 1-165, of influenza A virus H1N1 A/WSN/33 (domain or fragment)
chain: MSLLTEVETYVLSIVPSGPLKAEIAQRLEDVFAGKNTDLEVLMEWLKTRPILSPLTKGILGFVFTLTVPSERGLQRRRFVQNALNGNGDPNNMDKAVKLYRKLKREITFHGAKEIALSYSAGALASCMGLIYNRMGAVTTEVAFGLVCATCEQIADSQHRSHRQM
notes: also called N1-165-domain of WSN/33; biotinylated M1
The molecule B1 returned a Kd in data set [3] of 0.05 ± 0.03 nM.
